Format in all cases: physicochemical
Series [1] can be described thus: Storage of MgCl2×6H2O in gas-permeable concentrate container in climate chamber, Example 5. The conditions noted are these: 40° C., 75% relative humidity, 6 months. On the procedure: MgCl2×6H2O was stored in the climate chamber at 40° C. and 75% relative humidity in a gas-permeable concentrate container.
Series [2] in a line: Water uptake into concentrate container without gas barrier, Example 6. The conditions noted are these: 40° C., 75% relative humidity; for water uptake into the concentrate container (water content in percent by weight): after about 26 weeks; for water uptake: period of 6 months. On the procedure: The water uptake into a concentrate container without a gas barrier, comprising MgCl2×6H2O or alkaline magnesium carbonate, 4MgCO3×Mg(OH)2×5H2O respectively, was compared. The concentrate containers were each exposed in the climate chamber to 40° C. and 75% relative humidity for several weeks. […] The time in weeks is plotted on the abscissa. The water content in percent by weight is plotted on the ordinate.

Series [3] in a line: Caking behaviour of concentrates in containers stored in climate chamber, Examples 2-4. The settings on record: Example 4; 40° C., 75% relative humidity, 6 months. The source says: The container comprised of film material without appreciable gas-barrier properties is depicted on the left of FIG. 1. […] The container shown on the right of FIG. 1 comprised the same materials. Additionally, said film comprised a gas-barrier layer of silicon oxide. The gas permeability of said film was below 20 cm^3/(m^2·d·bar) for CO2, as measured in accordance with DIN 53380—part 4. […] 1.
The stability of a concentrate comprised of components according to the invention versus conventional components was tested. […] It was assumed that the crystal water of the glucose in conjunction with sodium chloride caused caking.

As for `O.O.O.O.O.O.[Cl-].[Cl-].[Mg+2]` [MgCl2×6H2O, magnesium chloride with crystal water, MgCl2×6H2O], the “physical state after storage” value in series [1] was “liquefied”. For the same compound, in series [2], the “water uptake into the concentrate container (water content in percent by weight)” value is on record as around 24% and the water uptake entry was “significant water uptake”.
On to `OC[C@H]1OC(O)[C@H](O)[C@@H](O)[C@@H]1O` (stereo partly drawn) [anhydrous glucose], for which the caking result in series [3] is reported as “does not promote caking”.
As to “alkaline magnesium carbonate, 4MgCO3×Mg(OH)2×5H2O”, in series [2], the “water uptake into the concentrate container (water content in percent by weight)” value is given as “no water uptake” and the water uptake result is “did not absorb any water”.

These data come from patent US9249345B2, “Concentrate for medical solutions, production thereof and use thereof in dialysis” (FRESENIUS MEDICAL CARE DEUTSCHLAND GMBH, priority 2010, dated 2016).
